# Measured values reported in ChEMBL document CHEMBL5724914, “Linking interpersonal differences in gut microbiota composition and drug biotransformation activity” (2024).
# Assay: (§1) The drug is tested on Z-027 corresponding to metagenome with ENA study accession number: PRJEB37062 and ENA sample accession number: ERS12561826 for biotransformation under anaerobic condition. The drug concentrations were measured over 9 timepoints collected between 0 and 24 hours of incubation by liquid-chromatography-coupled mass spectrometry (LC–MS)
# Settings: 2 µM
# Note: call rule not given here.
row,Bacterial Biotransformation,Structure (SMILES)
1,Compound NOT metabolized,COc1ccc2cc([C@H](C)C(=O)O)ccc2c1 [NAPROXEN]
2,Compound NOT metabolized,C#C[C@]1(OC(C)=O)CC[C@H]2[C@@H]3CCC4=C/C(=N/O)CC[C@@H]4[C@H]3CC[C@@]21CC [NORGESTIMATE]

# Assay: (§2) The drug is tested on Z-019 corresponding to rat gut metagenome with ENA study accession number: PRJEB37062 and ENA sample accession number: ERS12561818 for biotransformation under anaerobic condition. The drug concentrations were measured over 9 timepoints collected between 0 and 24 hours of incubation by liquid-chromatography-coupled mass spectrometry (LC–MS)
# Settings: 2 µM
row,Bacterial Biotransformation,Structure (SMILES)
1,Compound NOT metabolized,COc1ccc2cc([C@H](C)C(=O)O)ccc2c1 [NAPROXEN]
2,Compound NOT metabolized,C#C[C@]1(OC(C)=O)CC[C@H]2[C@@H]3CCC4=C/C(=N/O)CC[C@@H]4[C@H]3CC[C@@]21CC [NORGESTIMATE]

# Assay: as §2, with “on Z-018” for “on Z-019”, “to pig” for “to rat”, “number: ERS12561817” for “number: ERS12561818”
# Settings: 2 µM
row,Bacterial Biotransformation,Structure (SMILES)
1,Compound NOT metabolized,COc1ccc2cc([C@H](C)C(=O)O)ccc2c1 [NAPROXEN]
2,Compound NOT metabolized,C#C[C@]1(OC(C)=O)CC[C@H]2[C@@H]3CCC4=C/C(=N/O)CC[C@@H]4[C@H]3CC[C@@]21CC [NORGESTIMATE]

# Assay: as §2, with “Z-014” for “Z-019”, “ERS12561814” for “ERS12561818”
# Settings: 2 µM
row,Bacterial Biotransformation,Structure (SMILES)
1,Compound NOT metabolized,COc1ccc2cc([C@H](C)C(=O)O)ccc2c1 [NAPROXEN]
2,Compound NOT metabolized,C#C[C@]1(OC(C)=O)CC[C@H]2[C@@H]3CCC4=C/C(=N/O)CC[C@@H]4[C@H]3CC[C@@]21CC [NORGESTIMATE]

# Assay: as §1, with “Z-010” for “Z-027”, “ERS12561810” for “ERS12561826”
# Settings: 2 µM
row,Bacterial Biotransformation,Structure (SMILES)
1,Compound NOT metabolized,COc1ccc2cc([C@H](C)C(=O)O)ccc2c1 [NAPROXEN]
2,Compound NOT metabolized,C#C[C@]1(OC(C)=O)CC[C@H]2[C@@H]3CCC4=C/C(=N/O)CC[C@@H]4[C@H]3CC[C@@]21CC [NORGESTIMATE]

# Assay: as §2, with “on Z-006” for “on Z-019”, “to mouse” for “to rat”, “number: ERS12561806” for “number: ERS12561818”
# Settings: 2 µM
row,Bacterial Biotransformation,Structure (SMILES)
1,Compound NOT metabolized,COc1ccc2cc([C@H](C)C(=O)O)ccc2c1 [NAPROXEN]
2,Compound NOT metabolized,C#C[C@]1(OC(C)=O)CC[C@H]2[C@@H]3CCC4=C/C(=N/O)CC[C@@H]4[C@H]3CC[C@@]21CC [NORGESTIMATE]

# Assay: as §1, with “Z-005” for “Z-027”, “ERS12561805” for “ERS12561826”
# Settings: 2 µM
row,Bacterial Biotransformation,Structure (SMILES)
1,Compound NOT metabolized,COc1ccc2cc([C@H](C)C(=O)O)ccc2c1 [NAPROXEN]
2,Compound NOT metabolized,C#C[C@]1(OC(C)=O)CC[C@H]2[C@@H]3CCC4=C/C(=N/O)CC[C@@H]4[C@H]3CC[C@@]21CC [NORGESTIMATE]

# Assay: as §1, with “Z-004” for “Z-027”, “ERS12561804” for “ERS12561826”
# Settings: 2 µM
row,Bacterial Biotransformation,Structure (SMILES)
1,Compound NOT metabolized,COc1ccc2cc([C@H](C)C(=O)O)ccc2c1 [NAPROXEN]
2,Compound NOT metabolized,C#C[C@]1(OC(C)=O)CC[C@H]2[C@@H]3CCC4=C/C(=N/O)CC[C@@H]4[C@H]3CC[C@@]21CC [NORGESTIMATE]

# Assay: as §2, with “on WLS-370” for “on Z-019”, “to human” for “to rat”, “number: ERS12561793” for “number: ERS12561818”
# Settings: 2 µM
row,Bacterial Biotransformation,Structure (SMILES)
1,Compound NOT metabolized,COc1ccc2cc([C@H](C)C(=O)O)ccc2c1 [NAPROXEN]
2,Compound NOT metabolized,C#C[C@]1(OC(C)=O)CC[C@H]2[C@@H]3CCC4=C/C(=N/O)CC[C@@H]4[C@H]3CC[C@@]21CC [NORGESTIMATE]

# Assay: as §2, with “on WLS-310” for “on Z-019”, “to human” for “to rat”, “number: ERS12561785” for “number: ERS12561818”
# Settings: 2 µM
row,Bacterial Biotransformation,Structure (SMILES)
1,Compound metabolized,COc1ccc2cc([C@H](C)C(=O)O)ccc2c1 [NAPROXEN]
2,Compound metabolized,C#C[C@]1(OC(C)=O)CC[C@H]2[C@@H]3CCC4=C/C(=N/O)CC[C@@H]4[C@H]3CC[C@@]21CC [NORGESTIMATE]

# Assay: as §2, with “on WLS-086” for “on Z-019”, “to human” for “to rat”, “number: ERS12561752” for “number: ERS12561818”
# Settings: 2 µM
row,Bacterial Biotransformation,Structure (SMILES)
1,Compound metabolized,COc1ccc2cc([C@H](C)C(=O)O)ccc2c1 [NAPROXEN]
2,Compound metabolized,C#C[C@]1(OC(C)=O)CC[C@H]2[C@@H]3CCC4=C/C(=N/O)CC[C@@H]4[C@H]3CC[C@@]21CC [NORGESTIMATE]

# Assay: as §2, with “on WLS-010” for “on Z-019”, “to human” for “to rat”, “number: ERS12561743” for “number: ERS12561818”
# Settings: 2 µM
row,Bacterial Biotransformation,Structure (SMILES)
1,Compound metabolized,COc1ccc2cc([C@H](C)C(=O)O)ccc2c1 [NAPROXEN]
2,Compound metabolized,C#C[C@]1(OC(C)=O)CC[C@H]2[C@@H]3CCC4=C/C(=N/O)CC[C@@H]4[C@H]3CC[C@@]21CC [NORGESTIMATE]

# Assay: as §2, with “on WLS-007” for “on Z-019”, “to human” for “to rat”, “number: ERS12561742” for “number: ERS12561818”
# Settings: 2 µM
row,Bacterial Biotransformation,Structure (SMILES)
1,Compound NOT metabolized,COc1ccc2cc([C@H](C)C(=O)O)ccc2c1 [NAPROXEN]
2,Compound metabolized,C#C[C@]1(OC(C)=O)CC[C@H]2[C@@H]3CCC4=C/C(=N/O)CC[C@@H]4[C@H]3CC[C@@]21CC [NORGESTIMATE]

# Settings: human gut metagenome, 24 h, 2 µM
row,Bacterial Biotransformation,Structure (SMILES)
1,Compound NOT metabolized,COc1ccc2cc([C@H](C)C(=O)O)ccc2c1 [NAPROXEN]
2,Compound NOT metabolized,C#C[C@]1(OC(C)=O)CC[C@H]2[C@@H]3CCC4=C/C(=N/O)CC[C@@H]4[C@H]3CC[C@@]21CC [NORGESTIMATE]

# Settings: human gut metagenome, 24 h, 2 µM
# Remark: another data set of the same source
row,Bacterial Biotransformation,Structure (SMILES)
1,Compound metabolized,COc1ccc2cc([C@H](C)C(=O)O)ccc2c1 [NAPROXEN]
2,Compound metabolized,C#C[C@]1(OC(C)=O)CC[C@H]2[C@@H]3CCC4=C/C(=N/O)CC[C@@H]4[C@H]3CC[C@@]21CC [NORGESTIMATE]

# Settings: human gut metagenome, 24 h, 2 µM
# Remark: another data set of the same source
row,Bacterial Biotransformation,Structure (SMILES)
1,Compound metabolized,COc1ccc2cc([C@H](C)C(=O)O)ccc2c1 [NAPROXEN]
2,Compound metabolized,C#C[C@]1(OC(C)=O)CC[C@H]2[C@@H]3CCC4=C/C(=N/O)CC[C@@H]4[C@H]3CC[C@@]21CC [NORGESTIMATE]

# Settings: human gut metagenome, 24 h, 2 µM
# Remark: another data set of the same source
row,Bacterial Biotransformation,Structure (SMILES)
1,Compound NOT metabolized,COc1ccc2cc([C@H](C)C(=O)O)ccc2c1 [NAPROXEN]
2,Compound metabolized,C#C[C@]1(OC(C)=O)CC[C@H]2[C@@H]3CCC4=C/C(=N/O)CC[C@@H]4[C@H]3CC[C@@]21CC [NORGESTIMATE]

# Settings: human gut metagenome, 24 h, 2 µM
# Remark: another data set of the same source
row,Bacterial Biotransformation,Structure (SMILES)
1,Compound metabolized,COc1ccc2cc([C@H](C)C(=O)O)ccc2c1 [NAPROXEN]
2,Compound NOT metabolized,C#C[C@]1(OC(C)=O)CC[C@H]2[C@@H]3CCC4=C/C(=N/O)CC[C@@H]4[C@H]3CC[C@@]21CC [NORGESTIMATE]

# Settings: human gut metagenome, 24 h, 2 µM
# Remark: another data set of the same source
row,Bacterial Biotransformation,Structure (SMILES)
1,Compound metabolized,COc1ccc2cc([C@H](C)C(=O)O)ccc2c1 [NAPROXEN]
2,Compound metabolized,C#C[C@]1(OC(C)=O)CC[C@H]2[C@@H]3CCC4=C/C(=N/O)CC[C@@H]4[C@H]3CC[C@@]21CC [NORGESTIMATE]

# Settings: human gut metagenome, 24 h, 2 µM
# Remark: another data set of the same source
row,Bacterial Biotransformation,Structure (SMILES)
1,Compound metabolized,COc1ccc2cc([C@H](C)C(=O)O)ccc2c1 [NAPROXEN]
2,Compound metabolized,C#C[C@]1(OC(C)=O)CC[C@H]2[C@@H]3CCC4=C/C(=N/O)CC[C@@H]4[C@H]3CC[C@@]21CC [NORGESTIMATE]
